Measurements from ChEMBL document CHEMBL1201862, “PubChem BioAssay data set” (2004).
Active and inactive are the calls of the source.

Key:
HeLa = experiment: Cytotoxicity counterscreen assay for transcriptional activators of heat shock protein 70 (Hsp70). [Related pubchem assays: 1203, 1252 ]; type: functional; conditions: Homo sapiens;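 note: cells exposed to compound for 16 hours before readout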
Ion channel NompC = Ion channel NompC (Danio rerio, UniProt Q7T1G6); experiment: Dose response cell-based high-throughput screening assay for agonists of the transient receptor potential channel N1 (TRPN1). [Related pubchem assays (depositor defined):AID1424, AID1448]; type: functional
Sequence of Ion channel NompC (Q7T1G6 whole entry): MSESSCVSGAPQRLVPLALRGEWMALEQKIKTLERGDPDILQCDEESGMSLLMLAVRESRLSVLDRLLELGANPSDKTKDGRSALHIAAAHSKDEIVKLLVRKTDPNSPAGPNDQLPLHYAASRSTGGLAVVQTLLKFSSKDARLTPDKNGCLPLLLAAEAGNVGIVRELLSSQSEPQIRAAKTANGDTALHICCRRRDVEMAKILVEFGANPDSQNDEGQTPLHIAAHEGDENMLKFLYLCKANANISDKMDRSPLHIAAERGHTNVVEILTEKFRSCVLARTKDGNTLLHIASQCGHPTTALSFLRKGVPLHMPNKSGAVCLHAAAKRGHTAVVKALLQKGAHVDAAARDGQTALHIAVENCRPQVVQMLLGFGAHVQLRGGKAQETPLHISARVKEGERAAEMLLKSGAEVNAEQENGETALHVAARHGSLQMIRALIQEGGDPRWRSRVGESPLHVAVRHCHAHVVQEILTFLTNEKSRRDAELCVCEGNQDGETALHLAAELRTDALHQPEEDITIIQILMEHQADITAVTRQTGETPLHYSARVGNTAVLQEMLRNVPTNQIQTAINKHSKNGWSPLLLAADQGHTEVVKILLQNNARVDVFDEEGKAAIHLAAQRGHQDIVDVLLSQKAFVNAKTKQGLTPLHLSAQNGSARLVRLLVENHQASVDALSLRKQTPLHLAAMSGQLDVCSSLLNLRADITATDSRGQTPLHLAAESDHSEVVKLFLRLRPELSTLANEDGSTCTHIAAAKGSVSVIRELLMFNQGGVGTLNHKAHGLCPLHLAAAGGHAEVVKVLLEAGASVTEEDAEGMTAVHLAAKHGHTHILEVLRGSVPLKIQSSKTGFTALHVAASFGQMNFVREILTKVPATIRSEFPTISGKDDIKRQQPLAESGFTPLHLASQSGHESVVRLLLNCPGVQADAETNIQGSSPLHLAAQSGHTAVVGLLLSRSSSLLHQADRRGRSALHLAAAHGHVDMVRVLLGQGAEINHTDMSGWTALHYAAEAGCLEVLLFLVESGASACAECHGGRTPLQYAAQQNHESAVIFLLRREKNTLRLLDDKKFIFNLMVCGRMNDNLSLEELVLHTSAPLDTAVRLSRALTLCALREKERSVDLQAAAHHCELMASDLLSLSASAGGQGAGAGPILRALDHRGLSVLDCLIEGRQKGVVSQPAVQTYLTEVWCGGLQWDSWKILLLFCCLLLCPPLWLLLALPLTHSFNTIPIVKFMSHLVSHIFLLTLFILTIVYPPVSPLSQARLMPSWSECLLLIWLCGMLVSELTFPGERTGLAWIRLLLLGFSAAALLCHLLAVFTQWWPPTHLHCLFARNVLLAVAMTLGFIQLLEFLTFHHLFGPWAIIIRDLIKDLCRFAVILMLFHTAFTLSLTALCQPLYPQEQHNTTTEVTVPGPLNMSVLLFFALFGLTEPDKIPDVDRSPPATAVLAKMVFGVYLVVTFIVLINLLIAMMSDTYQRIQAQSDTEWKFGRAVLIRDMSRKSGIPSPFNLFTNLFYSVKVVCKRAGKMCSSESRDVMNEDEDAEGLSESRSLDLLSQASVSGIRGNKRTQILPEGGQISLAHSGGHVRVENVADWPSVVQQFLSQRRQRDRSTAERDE

[1] = microbe, parasite or virus in culture; type: functional; conditions: Mycobacterium tuberculosis
Mucolipin-3 = target: T1, Mucolipin-3 (Homo sapiens, UniProt Q8TDD5); experiment: Fluorescence counterscreen assay for […] agonists: dose response cell-based high-throughput screening assay to identify agonists of the transient receptor potential channel ML3 (TRPML3). [Related pubchem assays: 1424, 1448 ]; type: functional
T1 sequence (Q8TDD5 whole entry): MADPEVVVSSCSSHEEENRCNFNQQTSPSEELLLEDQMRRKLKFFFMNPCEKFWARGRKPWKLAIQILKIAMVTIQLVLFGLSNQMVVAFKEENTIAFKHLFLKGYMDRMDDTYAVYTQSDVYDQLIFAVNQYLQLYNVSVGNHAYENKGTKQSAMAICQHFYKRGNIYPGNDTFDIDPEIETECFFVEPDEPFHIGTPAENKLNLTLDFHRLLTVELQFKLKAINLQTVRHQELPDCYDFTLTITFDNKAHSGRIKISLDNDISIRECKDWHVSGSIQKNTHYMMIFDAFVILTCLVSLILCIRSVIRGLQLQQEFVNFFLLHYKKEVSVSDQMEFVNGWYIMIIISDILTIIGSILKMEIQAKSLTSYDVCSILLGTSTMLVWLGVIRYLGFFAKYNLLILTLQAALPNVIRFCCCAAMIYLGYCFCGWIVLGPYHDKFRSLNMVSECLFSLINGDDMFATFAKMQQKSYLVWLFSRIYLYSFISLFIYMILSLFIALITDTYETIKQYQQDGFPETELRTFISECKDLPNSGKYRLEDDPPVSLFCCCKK

[2] = target: T2, Aryl hydrocarbon receptor (Homo sapiens, UniProt P35869); experiment: Luminescence-based cell-based high throughput dose response assay for activators of the Aryl Hydrocarbon Receptor (AHR). [Related pubchem assays: 2796 (Primary screen (AHR activators in singlicate)), 2845 (Confirmation screen (AHR activators in triplicate)), 434939 (Counterscreen (PXR activators in triplicate)), 2804 (Summary (AHR activators))]; type: ADME
T2 sequence (P35869 whole entry): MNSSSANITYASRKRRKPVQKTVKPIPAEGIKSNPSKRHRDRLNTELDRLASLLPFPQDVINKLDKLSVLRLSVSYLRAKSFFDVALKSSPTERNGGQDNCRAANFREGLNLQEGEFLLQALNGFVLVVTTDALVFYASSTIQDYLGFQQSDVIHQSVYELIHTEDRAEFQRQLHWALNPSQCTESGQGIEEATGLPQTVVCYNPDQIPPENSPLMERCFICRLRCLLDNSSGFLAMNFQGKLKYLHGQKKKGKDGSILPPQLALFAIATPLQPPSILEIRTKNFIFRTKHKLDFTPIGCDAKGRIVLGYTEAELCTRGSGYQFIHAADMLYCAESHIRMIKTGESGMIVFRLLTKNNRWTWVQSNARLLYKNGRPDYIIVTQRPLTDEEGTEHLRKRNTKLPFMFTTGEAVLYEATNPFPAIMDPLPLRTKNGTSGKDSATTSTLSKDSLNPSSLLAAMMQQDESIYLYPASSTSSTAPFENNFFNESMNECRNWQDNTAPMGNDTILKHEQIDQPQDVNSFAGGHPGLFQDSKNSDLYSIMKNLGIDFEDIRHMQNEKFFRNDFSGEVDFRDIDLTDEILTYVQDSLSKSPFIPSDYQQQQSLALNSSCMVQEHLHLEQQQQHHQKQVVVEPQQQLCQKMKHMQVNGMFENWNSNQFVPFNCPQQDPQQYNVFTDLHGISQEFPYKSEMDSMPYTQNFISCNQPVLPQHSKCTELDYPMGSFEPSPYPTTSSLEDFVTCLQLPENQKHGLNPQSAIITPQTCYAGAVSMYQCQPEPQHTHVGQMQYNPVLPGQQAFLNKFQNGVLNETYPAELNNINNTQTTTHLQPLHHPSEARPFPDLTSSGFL

[3] = THP-1 cell cytotoxicity, dose response, cytotoxicity control for non-replicating M. tuberculosis project (AID 489025); type: functional
[4] = HepG2 cell cytotoxicity, dose response, cytotoxicity control for non-replicating M. tuberculosis project (AID 489018); type: functional; conditions: Mycobacterium tuberculosis
[5] = Vero E6 cell cytotoxicity, dose response, cytotoxicity control for non-replicating M. tuberculosis project, secondary assay (AID 492998); type: functional, VeroE6; conditions: Vero C1008
cells = type: functional
INS1 = experiment: beta cell apoptosis inhibitors, cytokine rescue, dose response, luminescence, retest (AID 449756); type: functional, cell-based; conditions: Rattus norvegicus;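 note: cell death triggered by IL-1 beta plus TNF-alpha plus IFN-gamma mixture; protective hits raise ATP signal compared with cytokine alone wells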
[6] = HepG2 cell cytotoxicity, dose response, cytotoxicity control for Shn3 inhibitor project, CellTiter-Glo, cherry-picked (AID 624134); type: functional, cell-based
[7] = control 3'UTR Renilla luciferase suppression, dose response, counter-screen for Shn3 inhibitor project, cell-based, Clone20-Shn3RL, cherry-picked (AID 624133); type: functional
HEK293 [8] = experiment: cells; conditions: Homo sapiens
HEK293 [9] = experiment: cells; conditions: Homo sapiens; remark: listed apart in the source
[10] = target: Beta-2 adrenergic receptor (Homo sapiens, UniProt P07550); experiment: beta2AR agonists driving receptor internalization, dose response, cell-based, FAP fluorogen, flow cytometry, cherry pick 1 (AID 588763); type: functional
Sequence of Beta-2 adrenergic receptor (P07550 whole entry): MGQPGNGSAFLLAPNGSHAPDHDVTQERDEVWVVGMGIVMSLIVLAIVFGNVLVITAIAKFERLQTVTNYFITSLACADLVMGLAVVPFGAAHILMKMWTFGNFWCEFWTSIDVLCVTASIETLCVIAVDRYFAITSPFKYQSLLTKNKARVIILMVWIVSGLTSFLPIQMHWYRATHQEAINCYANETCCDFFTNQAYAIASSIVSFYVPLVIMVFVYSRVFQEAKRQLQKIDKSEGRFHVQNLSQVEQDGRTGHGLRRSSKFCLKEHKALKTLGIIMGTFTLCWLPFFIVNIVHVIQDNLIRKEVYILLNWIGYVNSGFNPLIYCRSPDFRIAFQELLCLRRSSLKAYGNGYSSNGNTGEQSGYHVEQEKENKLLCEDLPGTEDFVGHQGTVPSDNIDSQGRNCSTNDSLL

Beta-galactosidase = Beta-galactosidase (Escherichia coli, UniProt Q8VNN2); experiment: PubChem AID 485352; type: functional
Sequence of Beta-galactosidase (Q8VNN2 whole entry): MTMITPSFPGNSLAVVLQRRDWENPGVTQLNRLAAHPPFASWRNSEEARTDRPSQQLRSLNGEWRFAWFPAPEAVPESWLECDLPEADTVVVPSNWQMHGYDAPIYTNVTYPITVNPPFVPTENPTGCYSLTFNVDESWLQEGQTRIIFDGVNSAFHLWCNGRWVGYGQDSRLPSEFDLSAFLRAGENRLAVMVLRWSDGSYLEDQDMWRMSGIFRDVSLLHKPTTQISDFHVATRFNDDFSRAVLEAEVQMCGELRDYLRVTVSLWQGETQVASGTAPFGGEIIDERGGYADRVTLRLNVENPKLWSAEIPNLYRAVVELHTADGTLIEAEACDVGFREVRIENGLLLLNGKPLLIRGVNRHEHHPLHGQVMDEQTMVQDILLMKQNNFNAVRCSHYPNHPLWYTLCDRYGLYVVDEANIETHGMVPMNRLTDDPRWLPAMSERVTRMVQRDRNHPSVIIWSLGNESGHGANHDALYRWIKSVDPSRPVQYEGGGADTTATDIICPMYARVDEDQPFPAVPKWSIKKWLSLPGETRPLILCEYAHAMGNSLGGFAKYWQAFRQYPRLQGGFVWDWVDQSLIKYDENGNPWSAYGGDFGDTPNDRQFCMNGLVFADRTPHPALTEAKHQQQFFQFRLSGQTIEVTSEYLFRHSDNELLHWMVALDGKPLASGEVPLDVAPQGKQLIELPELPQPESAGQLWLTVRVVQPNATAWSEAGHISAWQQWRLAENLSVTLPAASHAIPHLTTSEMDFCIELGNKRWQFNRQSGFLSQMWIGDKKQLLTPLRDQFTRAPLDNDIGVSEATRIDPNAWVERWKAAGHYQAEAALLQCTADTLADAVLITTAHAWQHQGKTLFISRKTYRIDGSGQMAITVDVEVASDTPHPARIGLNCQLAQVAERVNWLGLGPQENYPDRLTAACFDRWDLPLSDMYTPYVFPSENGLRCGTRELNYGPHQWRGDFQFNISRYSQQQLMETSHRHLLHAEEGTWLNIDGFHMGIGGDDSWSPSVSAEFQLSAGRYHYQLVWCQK

[11] = target: T3, Type-1 angiotensin II receptor (Homo sapiens, UniProt P30556); experiment: AT1 receptor antagonists, dose response, selectivity assay for APJ receptor antagonist project, cell-based, uHTS hits (AID 463214); type: functional;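 note: antagonist potency against angiotensin II stimulated AT1 response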
T3 sequence (P30556 whole entry): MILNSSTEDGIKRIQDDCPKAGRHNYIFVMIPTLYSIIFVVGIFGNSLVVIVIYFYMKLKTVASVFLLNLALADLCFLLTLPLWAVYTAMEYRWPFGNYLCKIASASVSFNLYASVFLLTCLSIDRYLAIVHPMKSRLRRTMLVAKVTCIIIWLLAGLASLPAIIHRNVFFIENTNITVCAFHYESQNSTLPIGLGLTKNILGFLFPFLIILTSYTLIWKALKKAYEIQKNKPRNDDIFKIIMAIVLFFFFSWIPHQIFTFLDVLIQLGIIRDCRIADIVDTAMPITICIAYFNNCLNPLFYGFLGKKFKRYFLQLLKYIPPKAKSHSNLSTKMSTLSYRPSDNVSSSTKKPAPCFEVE

Exodeoxyribonuclease V = Exodeoxyribonuclease V (Escherichia coli (strain K12), UniProt P04993+P07648+P08394); experiment: E. coli RecBCD inhibitors, dose response, counter-screen for AddAB inhibitor project, absorbance, V66 E. coli, mutant T4 phage (AID 492957); type: functional, cell-based, Escherichia coli str. K-12 substr. MG1655
[12] = Counterscreen for AddAB inhibitors: absorbance-based bacterial cell-based high throughput dose response assay for inhibitors of bacterial viability. [Related pubchem assays (depositor defined):AID435030, AID449728, AID449731, AID488942, AID488955, AID488956]; type: functional
Hexokinase-1 = target: T4, Hexokinase-1 (Homo sapiens, UniProt P19367); experiment: SAR analysis of small molecule inhibitors of hexokinase domain containing I (HKDC1) in the hexokinase 1 selectivity assay. [Related pubchem assays (depositor defined):AID493160, AID493190]; type: functional
T4 sequence (P19367 whole entry): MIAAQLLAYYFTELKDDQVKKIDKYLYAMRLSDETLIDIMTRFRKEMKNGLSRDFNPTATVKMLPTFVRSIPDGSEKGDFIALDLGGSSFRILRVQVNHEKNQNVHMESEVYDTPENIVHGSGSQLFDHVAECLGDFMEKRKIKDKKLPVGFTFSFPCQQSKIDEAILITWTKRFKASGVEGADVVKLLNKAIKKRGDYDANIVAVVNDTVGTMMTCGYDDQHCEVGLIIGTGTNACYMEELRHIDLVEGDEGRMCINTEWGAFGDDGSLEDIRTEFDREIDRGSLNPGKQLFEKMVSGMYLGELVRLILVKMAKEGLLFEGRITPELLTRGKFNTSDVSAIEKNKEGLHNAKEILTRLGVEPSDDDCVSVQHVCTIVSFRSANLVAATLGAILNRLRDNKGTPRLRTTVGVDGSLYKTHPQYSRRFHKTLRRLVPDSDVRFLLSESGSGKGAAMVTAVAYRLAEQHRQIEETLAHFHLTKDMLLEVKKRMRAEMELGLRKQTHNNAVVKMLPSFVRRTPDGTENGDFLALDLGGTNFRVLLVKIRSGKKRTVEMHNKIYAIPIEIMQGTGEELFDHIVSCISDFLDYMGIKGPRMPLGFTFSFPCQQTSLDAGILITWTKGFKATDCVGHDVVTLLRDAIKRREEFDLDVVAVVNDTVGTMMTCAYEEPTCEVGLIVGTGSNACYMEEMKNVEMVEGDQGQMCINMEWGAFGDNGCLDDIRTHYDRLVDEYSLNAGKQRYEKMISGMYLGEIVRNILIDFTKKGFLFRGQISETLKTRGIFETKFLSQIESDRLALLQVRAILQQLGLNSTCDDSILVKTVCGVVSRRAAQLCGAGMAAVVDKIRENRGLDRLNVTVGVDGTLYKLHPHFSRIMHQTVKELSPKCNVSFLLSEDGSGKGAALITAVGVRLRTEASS

Hexokinase HKDC1 = target: T5, Hexokinase HKDC1 (Homo sapiens, UniProt Q2TB90); experiment: SAR analysis of small molecule inhibitors of hexokinase domain containing I (HKDC1). [Related pubchem assays (depositor defined):AID493160, AID493190]; type: functional
T5 sequence (Q2TB90 whole entry): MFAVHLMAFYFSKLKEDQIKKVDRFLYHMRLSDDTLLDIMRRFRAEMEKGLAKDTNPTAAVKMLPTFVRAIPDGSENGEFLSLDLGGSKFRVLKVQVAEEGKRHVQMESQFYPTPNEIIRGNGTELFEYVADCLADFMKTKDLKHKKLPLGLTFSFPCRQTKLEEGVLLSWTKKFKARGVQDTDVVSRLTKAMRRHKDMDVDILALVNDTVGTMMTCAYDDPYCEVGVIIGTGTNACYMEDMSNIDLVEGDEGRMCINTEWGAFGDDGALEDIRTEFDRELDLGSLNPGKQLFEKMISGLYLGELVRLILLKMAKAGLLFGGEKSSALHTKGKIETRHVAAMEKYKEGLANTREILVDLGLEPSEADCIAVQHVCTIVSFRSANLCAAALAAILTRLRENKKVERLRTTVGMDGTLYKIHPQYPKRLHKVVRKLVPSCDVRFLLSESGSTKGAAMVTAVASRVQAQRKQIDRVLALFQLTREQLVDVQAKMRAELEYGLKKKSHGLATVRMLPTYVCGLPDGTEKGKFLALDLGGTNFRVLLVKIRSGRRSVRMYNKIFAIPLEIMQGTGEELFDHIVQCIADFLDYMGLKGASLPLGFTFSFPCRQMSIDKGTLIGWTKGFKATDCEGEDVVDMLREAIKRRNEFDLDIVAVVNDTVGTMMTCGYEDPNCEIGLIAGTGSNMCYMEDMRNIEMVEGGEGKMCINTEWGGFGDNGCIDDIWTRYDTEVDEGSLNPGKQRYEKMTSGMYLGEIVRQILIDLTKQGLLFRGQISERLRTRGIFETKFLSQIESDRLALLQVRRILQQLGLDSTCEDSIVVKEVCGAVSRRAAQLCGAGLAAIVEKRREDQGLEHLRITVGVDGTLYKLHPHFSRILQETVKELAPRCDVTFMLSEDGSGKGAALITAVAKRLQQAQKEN

For `CC(=O)Nc1sc2c(c1-c1nc3ccccc3s1)CCN(C(C)C)C2`, the CC50 (HeLa) was 9.92 µM (active), the EC50 (Ion channel NompC) was 25.1 µM (inactive) and the CC50 [1] was 2.94 µM (active). For the same molecule, the EC50 (Mucolipin-3) was > 29.9 µM (not active), the EC50 [2] was > 1.13 µM (active) and the CC50 [3] was 3.78 µM (active). For the same molecule, the CC50 [4] was 7.58 µM (active), the CC50 [5] was 3.05 µM (active) and the IC50 (cells) was 5.98 µM (active). For the same molecule, the AC50 (INS1) was 1.77 µM (active), the AC50 [6] was 4.53 µM (active) and the AC50 [7] was 20.1 µM (active). For the same molecule, the EC50 (HEK293 [8]) was > 2.21 µM (active) and the EC50 (HEK293 [9]) was > 59.6 µM (inactive).
In the case of `CCSc1nc2ccccc2n1C(=O)c1ccc(S(=O)(=O)N2CCCCCC2)cc1`, the EC50 [10] is reported as 12.5 µM (inactive).
With `O=C(Cc1ccccc1)NCC(=O)OCC(=O)c1cccc([N+](=O)[O-])c1` the EC50 (Beta-galactosidase) was > 40 µM (inactive) and the IC50 [11] was 23.2 µM (not active).
For `CCOC(=O)c1cn(C2CC2)c2c(F)c(NCCCN(C)C)c(F)cc2c1=O`, the IC50 (Exodeoxyribonuclease V) was > 119 µM (inactive), the IC50 [12] was 75.9 µM (inactive) and the EC50 [10] was 0.353 µM (active).
For `Cc1ccoc1C(=O)Nc1cccc(C(=O)Nc2cccc(C(F)(F)F)c2)c1`, the IC50 (Hexokinase-1) was > 80 µM (inactive) and the IC50 (Hexokinase HKDC1) was > 80 µM (inactive).
For `COc1ccc(NC(=O)c2ccc(NC(=O)c3scnc3C)cc2)cc1`, the IC50 (Hexokinase-1) was > 80 µM (inactive) and the IC50 (Hexokinase HKDC1) was > 80 µM (inactive).
